Experimental data taken from US20230391756A1, “NEW COMPOUND” (JANSSEN PHARMACEUTICA NV, priority 2020, published 2023).

Tests used:
[1] = test system: NLRP3 inflammasome pathway (IL-1β); assay: PBMC assay: IL-1β release after LPS stimulation; assay type: cell-based; details: human PBMCs, 100 ng/ml LPS for 6 hrs, MSD
Description: The activity of a compound according to the present invention can be assessed by in vitro methods.
(§1) Peripheral venous blood was collected from healthy individuals and human peripheral blood mononuclear cells (PBMCs) were isolated from blood by Ficoll-Histopaque (Sigma-Aldrich, A0561) density gradient centrifugation. After isolation, PBMCs were stored in liquid nitrogen for later use. Upon thawing, PBMC cell viability was determined in growth medium (RPMI media supplemented with 10% fetal bovine serum, 1% Pen-Strep and 1% L-glutamine). […] PBMCs were added at a density of 7.5×10^4 cells per well and incubated for 30 min in a 5% CO2 incubator at 37° C. LPS stimulation was performed by addition of 100 ng/ml LPS (final concentration, Invivogen, tlrl-smlps) for 6 hrs followed by collection of cellular supernatant and the analysis of IL-1β (μM) and TNF cytokines levels (μM) via MSD technology according to manufacturers' guidelines (MSD, K151A0H).

[2] = test system: TNF; assay: PBMC assay: TNF cytokine level after LPS stimulation; assay type: cell-based; details: human PBMCs, 100 ng/ml LPS for 6 hrs, MSD, read-out: TNFα EC50
Description: as §1

| SMILES | IC50 [1] | melting point | EC50 [2] |
| --- | --- | --- | --- |
| CCn1nc(CC(=O)N[C@H]2C[C@@](C)(O)C2)c(=O)c2ccc(Br)cc21 [F-5] | 250 nM | 203.3 °C | > 20 µM |
| CCn1nc(CC(=O)Nc2ccc3nncn3c2)c(=O)c2ccc(Br)cc21 [F-6] | 102 nM | 294.3 °C | > 20 µM |
| CC(C)n1nc(CC(=O)N[C@H]2C[C@@H](C(C)(C)O)C2)c(=O)c2ccc(C(F)(F)F)cc21 [F-10] | 11600 nM | 181 °C | > 20 µM |
| CC(C)n1nc(CC(=O)Nc2ccc3cncn3c2)c(=O)c2ccc(C(F)(F)F)cc21 [F-15] | 239 nM | 152.7 °C | 11 µM |
| CC(C)n1nc(CC(=O)Nc2ccn3cnnc3c2)c(=O)c2ccc(C(F)(F)F)cc21 [F-17] | 5350 nM | 212.3 °C | > 20 µM |
| CC(C)n1nc(CC(=O)Nc2ccc(=O)n(C)n2)c(=O)c2ccc(C(F)(F)F)cc21 [F-18] | 880 nM | 258.8 °C | > 20 µM |
| CC(C)n1nc(CC(=O)Nc2ccc3c(c2)[nH]c(=O)n3C)c(=O)c2ccc(C(F)(F)F)cc21 [F-19] | 92 nM | 241.6 °C | 8.29 µM |
| CC(C)n1nc(CC(=O)Nc2ccc3nncn3c2)c(=O)c2ccc(C(F)(F)F)cc21 [F-20] | 178 nM | 291.3 °C | > 20 µM |
| CC(C)n1nc(CC(=O)N[C@H]2C[C@@](C)(O)C2)c(=O)c2ccc(C(F)(F)F)cc21 [F-21] | 836 nM | 200.9 °C | > 20 µM |
| CC(C)n1nc(CC(=O)Nc2ccncn2)c(=O)c2ccc(C(F)(F)F)cc21 [F-22] | 464 nM | 178.3 °C | 12.2 µM |
| CC(C)n1nc(CC(=O)Nc2ccc3ncnn3c2)c(=O)c2ccc(C(F)(F)F)cc21 [F-24] | 814 nM | 206.8 °C | > 20 µM |
| CCn1nc(CC(=O)N[C@H]2C[C@@](C)(O)C2)c(=O)c2ccc(Cl)cc21 [F-25] | 2140 nM | 191.5 °C | > 20 µM |
| CC(C)c1ccc2c(=O)c(CC(=O)N[C@H]3C[C@@](C)(O)C3)nn(C(C)C)c2c1 [F-26] | 1080 nM | 201.5 °C | > 20 µM |
| CCn1nc(CC(=O)Nc2ccc3nncn3c2)c(=O)c2ccc(Cl)cc21 [F-27] | 620 nM | 254.3 °C | > 20 µM |
| CC(C)n1nc(CC(=O)N[C@H]2C[C@@](C)(O)C2)c(=O)c2ccc(Cl)cc21 [F-28] | 230 nM | 194.9 °C | > 20 µM |
| CC(C)n1nc(CC(=O)Nc2ccc3nncn3c2)c(=O)c2ccc(Cl)cc21 [F-29] | 620 nM | 292 °C | > 20 µM |

| SMILES | IC50 [1] | melting point | EC50 [2] |
| --- | --- | --- | --- |
| CC(C)n1nc(CC(=O)Nc2ccc3nncn3n2)c(=O)c2ccc(Cl)cc21 [F-30] | 224 nM | 241.6 °C | 16.4 µM |
| CC(C)c1ccc2c(=O)c(CC(=O)Nc3ccc4nncn4c3)nn(C(C)C)c2c1 [F-31] | 220 nM | 181.4 °C | 11.4 µM |
| CC(C)c1ccc2c(=O)c(CC(=O)Nc3ccc4nncn4n3)nn(C(C)C)c2c1 [F-32] | 109 nM | 121.3 °C | 6.98 µM |
| CC(C)n1nc(CC(=O)Nc2ccc(=O)n(C)n2)c(=O)c2ccc(Br)cc21 [F-33] | 433 nM | 221.9 °C | > 20 µM |
| CCn1nc(CC(=O)Nc2ccc3nncn3n2)c(=O)c2ccc(Cl)cc21 [F-34] | 490 nM | 206.5 °C | > 20 µM |
| CC(C)n1nc(CC(=O)Nc2ccc3c(C#N)ncn3c2)c(=O)c2ccc(C(F)(F)F)cc21 [F-36] | 990 nM | 259.8 °C | > 20 µM |
| CC(C)n1nc(CC(=O)Nc2ccc3nnc(C(F)F)n3c2)c(=O)c2ccc(C(F)(F)F)cc21 [F-39] | 2110 nM | 226.8 °C | 17.4 µM |
| Cc1nnc2cc(NC(=O)Cc3nn(C(C)C)c4cc(C(F)(F)F)ccc4c3=O)ccn12 [F-41] | 6350 nM | 216.3 °C | > 20 µM |
| CC(C)n1nc(CC(=O)Nc2ccc3nncn3c2)c(=O)c2ccc(C3CCC3)cc21 [F-42] | 7760 nM | 179.8 °C | 17.8 µM |
| CC(C)n1nc(CC(=O)NC2CCc3ncn(C)c3C2)c(=O)c2ccc(C(F)(F)F)cc21 (centres unmarked) [F-43] | 5100 nM | 221 °C | > 20 µM |
| CCn1nc(CC(=O)Nc2ccc3nncn3c2)c(=O)c2ccc(C3CCC3)cc21 [F-46] | 4520 nM | 113.1 °C | > 20 µM |
| CC(C)n1nc(CC(=O)Nc2cc(Cl)c(=O)n(C(F)F)c2)c(=O)c2ccc(C(F)(F)F)cc21 [F-47] | 3650 nM | 233 °C | > 20 µM |
| CCn1nc(CC(=O)Nc2ncc3ncn(C)c3n2)c(=O)c2ccc(C(F)(F)F)cc21 [F-48] | 3260 nM | 271 °C | > 20 µM |
| CCC(C)n1nc(CC(=O)Nc2ccc3nncn3c2)c(=O)c2ccc(C(F)(F)F)cc21 (centres unmarked) [F-49] | 3190 nM | 156.4 °C | > 20 µM |
| CC(C)n1nc(CC(=O)Nc2ncc3ncn(C)c3n2)c(=O)c2ccc(C(F)(F)F)cc21 [F-50] | 2950 nM | 281.4 °C | > 20 µM |
| Cc1ncc2n1CCC(NC(=O)Cc1nn(C(C)C)c3cc(C(F)(F)F)ccc3c1=O)C2 (centres unmarked) [F-51] | 2480 nM | 233.4 °C | > 20 µM |

Second part, the molecule after the results:

| IC50 [1] | melting point | EC50 [2] | SMILES |
| --- | --- | --- | --- |
| 514 nM | 237.8 °C | > 20 µM | CCn1nc(CC(=O)Nc2ccc3ncn(C)c3n2)c(=O)c2ccc(C(F)(F)F)cc21 [F-57] |
| 370 nM | 190.1 °C | 15.8 µM | CC(C)c1ccc2c(=O)c(CC(=O)Nc3ccc4nccn4n3)nn(C3CC3)c2c1 [F-58] |
| 350 nM | 193 °C | ~12.8 µM | CCn1nc(CC(=O)Nc2ccc3nccn3n2)c(=O)c2ccc(C(F)(F)F)cc21 [F-60] |
| 290 nM | 216.4 °C | > 20 µM | O=C(Cc1nn(C2CC2)c2cc(C(F)(F)F)ccc2c1=O)Nc1ccc2nccn2n1 [F-61] |
| 275 nM | 193.4 °C | > 20 µM | CCn1nc(CC(=O)Nc2ccc3nccn3n2)c(=O)c2ccc(C3CC3)cc21 [F-62] |
| 260 nM | 188.9 °C | 7.89 µM | CC(F)(F)c1ccc2c(=O)c(CC(=O)Nc3ccc4nccn4n3)nn(C3CC3)c2c1 [F-64] |
| 230 nM | 244.6 °C | > 20 µM | O=C(Cc1nn(C2CC2)c2cc(Br)ccc2c1=O)Nc1ccc2nccn2n1 [F-66] |
| 220 nM | 145.4 °C | > 20 µM | CC(F)(F)c1ccc2c(=O)c(CC(=O)Nc3ccc4nncn4c3)nn(C3CC3)c2c1 [F-67] |
| 200 nM | 279.8 °C | > 20 µM | CCn1nc(CC(=O)Nc2ccc3nncn3c2)c(=O)c2ccc(C(C)(F)F)cc21 [F-68] |
| 147 nM | 252.9 °C | 7.84 µM | CCn1nc(CC(=O)Nc2ccc3nncn3n2)c(=O)c2ccc(C(C)(F)F)cc21 [F-70] |
| 105 nM | 310 °C | > 20 µM | O=C(Cc1nn(C2CC2)c2cc(Br)ccc2c1=O)Nc1ccc2nncn2c1 [F-71] |
| 48 nM | – | > 20 µM | CC(C)n1nc(CC(=O)Nc2ccc3nncn3n2)c(=O)c2ccc(Br)cc21 [F-134] |
| 590 nM | – | > 20 µM | Cc1nnc2ccc(NC(=O)Cc3nn(C(C)C)c4cc(C(F)(F)F)ccc4c3=O)nn12 [F-135] |
| 280 nM | – | 4.46 µM | O=C(Cc1nn(C2CC2)c2cc(C3CC3)ccc2c1=O)Nc1ccc2nncn2n1 [F-137] |
| 240 nM | – | 3.43 µM | CC(C)n1nc(CC(=O)Nc2ccc3nccn3n2)c(=O)c2ccc(C(C)(F)F)cc21 [F-138] |
| 143 nM | – | 4.88 µM | CC(C)c1ccc2c(=O)c(CC(=O)Nc3ccc4nncn4n3)nn(C3CC3)c2c1 [F-140] |
| 119 nM | – | ~12.8 µM | CCn1nc(CC(=O)Nc2ccc3nncn3n2)c(=O)c2ccc(C(C)C)cc21 [F-142] |
| 109 nM | – | 7.58 µM | CC(C)n1nc(CC(=O)Nc2ccc3nncn3n2)c(=O)c2ccc(C(F)(F)F)cc21 [F-143] |
| 78 nM | – | > 20 µM | O=C(Cc1nn(C2CC2)c2cc(Br)ccc2c1=O)Nc1ccc2nncn2n1 [F-144] |
| 190 nM | – | > 20 µM | CC(C)n1nc(CC(=O)Nc2ccc3nncn3c2)c(=O)c2ccc(C(C)(F)F)cc21 [F-149, N-([1,2,4]triazolo[4,3-a]pyridin-6-yl)-2-(7-(1,1-difluoroethyl)-1-isopropyl-4-oxo-1,4-dihydrocinnolin-3-yl)acetamide] |
| 2450 nM | – | 17.1 µM | CC(C)n1nc(NC(=O)Nc2ccc3nncn3c2)c(=O)c2ccc(C(F)(F)F)cc21 [F-150, 1-([1,2,4]triazolo[4,3-a]pyridin-6-yl)-3-(1-isopropyl-4-oxo-7-(trifluoromethyl)-1,4-dihydrocinnolin-3-yl)urea] |
